Assay results as given in ChEMBL document CHEMBL5370559, “Plasmodium-Resistant Indole Diterpenoid Biosynthesis Gene Cluster Derived from Aspergillus oryzae Was Activated by Exogenous P450 Gene Ast B” (J Nat Prod, 2023).
pIC50: −log10 of the molar value.

Tests used:
[1] = system: Plasmodium falciparum; assay: Antiplasmodial activity against erythrocytic stage chloroquine sensitive Plasmodium falciparum 3D7 assessed as parasitic growth inhibition measured after 3 days by HRP2-ELISA assay; format: functional, organism-based; settings: 3D7, 72 h
[2] = system: Plasmodium falciparum; assay: Antiplasmodial activity against erythrocytic stage chloroquine resistant Plasmodium falciparum dD2 assessed as parasitic growth inhibition measured after 3 days by HRP2-ELISA assay; format: functional, organism-based; settings: dD2, 72 h

Row | SMILES | pIC50 [1] | pIC50 [2]
1 | CC(C)(O)[C@H]1O[C@@]2(O)CC[C@@]3(C)[C@@H](CC[C@H]4Cc5c([nH]c6ccccc56)[C@@]43C)C2=CC1=O | 5.96 | 3.82
2 | CC(C)C1=C(c2c[nH]c3ccccc23)[C@@H]2[C@H](C)C[C@@H](O)[C@@]3(C)[C@H](C)CC[C@@H](O)[C@@]23CC1 | 4.28 | 
3 | C[C@H](CO)C1=C(c2c[nH]c3ccccc23)[C@@H]2[C@H](C)C[C@@H](O)[C@@]3(C)[C@H](C)CC[C@@H](O)[C@@]23CC1 | 4.59 | 
4 | CC1=CC[C@@H](O)[C@@]23CC=C(C(C)C)[C@H](c4c[nH]c5ccccc45)[C@@H]2[C@H](C)CC[C@@]13C | 4.70 | 
5 | C=CC(C)(C)c1cccc2[nH]c3c(c12)C[C@@H]1CC[C@H]2C4=CC(=O)[C@@H](C(C)(C)O)O[C@H]4CC[C@]2(C)[C@@]31C | 6.08 | 4.39
6 | CC(C)C1=CC[C@]23[C@@H]([C@H](C)CC[C@@]2(C)[C@H](C)CC[C@H]3O)[C@H]1c1c[nH]c2ccccc12 | 4.51 | 
7 | C[C@@H]1CC[C@@]2(C)[C@H](C)CC[C@@H](O)[C@]23CC[C@@H](C(C)(C)O)[C@H](c2c[nH]c4ccccc24)[C@H]13 | < 3.70 | 
8 | Cc1cc2[nH]c3ccccc3c2c2c1CC[C@@]13[C@H](O)CC[C@@H](C)[C@]1(C)[C@H](O)C[C@@H](C)[C@@H]23 | 4.31 | 
9 | CC(C)C1=C(c2c[nH]c3ccccc23)[C@@H]2[C@H](C)CC[C@@]3(C)[C@H](C)CC[C@@H](O)[C@@]23CC1 | 5.55 | < 3.70
10 | C=CC(C)(C)c1cccc2[nH]c3c(c12)C[C@@H]1CC(=O)[C@@]2(O)C4=CC(=O)[C@@H](C(C)(C)O)O[C@]4(O)CC[C@]2(C)[C@@]31C | 4.24 | 
11 | C=CC(C)(C)c1ccc2[nH]c3c(c2c1)C[C@@H]1CC[C@H]2C4=CC(=O)[C@@H](C(C)(C)O)O[C@H]4CC[C@]2(C)[C@@]31C | 5.89 | 4.02
12 | C=CC(C)(C)c1cccc2[nH]c3c(c12)C[C@@H]1CC[C@@]2(O)C4=CC(=O)[C@@H]5O[C@@]4(CC[C@]2(C)[C@@]31C)OC5(C)C [AFLATREME] | < 3.70 | 
13 | C[C@@H]1CC[C@H]2[C@@H](C)C(=O)O[C@@H]3O[C@@]4(C)CC[C@@H]1[C@]32OO4 [ARTEMISININ] | 7.89 | 4.92
14 | CC(C)(O)[C@H]1O[C@H]2CC[C@@]3(C)[C@@H](CC[C@H]4Cc5c([nH]c6ccccc56)[C@@]43C)C2=CC1=O [DEHYDROXYPAXILLINE] | 6.05 | 4.16
15 | CC(C)=CCC[C@]1(C)[C@@H](O)CC[C@@]2(C)[C@H]1CC[C@H]1Cc3c([nH]c4ccccc34)[C@@]12C [EMINDOLE SB] | 5.54 | 4.47
16 | CC(C)(O)[C@@H]1CC[C@]2(C)[C@H](CC[C@@]3(C)[C@H]2CC[C@H]2Cc4c([nH]c5ccccc45)[C@@]23C)O1 [PASPALINE] | 5.66 | < 3.70
